The text below walks through data of US20230139171A1 (SITA Information Networking Computing UK Limited, priority 2019, published 2023).

Where only a bound is given, the exact number is not on record here.

What all share (assay type): cell-based
Test [1] deals with T1, human TLR7 (Homo sapiens, UniProt Q9NYK1).
T1 construct: host or cells: HEK-Blue cells
T1 sequence (Q9NYK1 27-1049): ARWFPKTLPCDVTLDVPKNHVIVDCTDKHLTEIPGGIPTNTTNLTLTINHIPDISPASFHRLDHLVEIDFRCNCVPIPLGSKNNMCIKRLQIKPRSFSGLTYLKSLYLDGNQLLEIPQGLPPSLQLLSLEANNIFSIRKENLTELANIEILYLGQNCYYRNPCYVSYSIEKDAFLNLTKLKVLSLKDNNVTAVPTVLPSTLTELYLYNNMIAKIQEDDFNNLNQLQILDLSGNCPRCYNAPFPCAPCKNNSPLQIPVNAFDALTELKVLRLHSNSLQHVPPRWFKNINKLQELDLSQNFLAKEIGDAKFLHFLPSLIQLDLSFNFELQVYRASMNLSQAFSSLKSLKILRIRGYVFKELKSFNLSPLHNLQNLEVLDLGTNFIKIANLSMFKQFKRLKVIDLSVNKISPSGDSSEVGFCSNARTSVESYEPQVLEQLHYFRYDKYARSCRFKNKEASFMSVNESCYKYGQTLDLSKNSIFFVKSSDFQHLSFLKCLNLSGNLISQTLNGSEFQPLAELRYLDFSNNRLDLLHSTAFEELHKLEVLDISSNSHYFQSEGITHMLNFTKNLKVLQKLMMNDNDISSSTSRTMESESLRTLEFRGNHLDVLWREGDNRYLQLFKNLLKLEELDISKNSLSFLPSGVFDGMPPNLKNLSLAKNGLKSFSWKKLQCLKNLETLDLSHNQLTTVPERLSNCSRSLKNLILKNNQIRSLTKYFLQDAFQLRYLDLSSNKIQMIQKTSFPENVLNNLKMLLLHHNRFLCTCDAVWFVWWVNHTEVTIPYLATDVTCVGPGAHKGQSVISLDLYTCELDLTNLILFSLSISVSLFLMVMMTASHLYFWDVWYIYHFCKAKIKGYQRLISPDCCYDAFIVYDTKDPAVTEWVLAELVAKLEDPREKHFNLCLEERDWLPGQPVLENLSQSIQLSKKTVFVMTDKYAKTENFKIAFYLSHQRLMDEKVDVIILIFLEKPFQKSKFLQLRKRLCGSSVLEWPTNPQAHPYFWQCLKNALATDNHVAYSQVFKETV
The experiment in a line: TLR7 inhibition reporter assay (HEK-Blue cells, SEAP reporter, gardiquimod stimulation). The note with it: HEK-Blue cells overexpressing human TLR7, SEAP reporter, gardiquimod 7.5 μM; read-out: TLR7 IC50. The procedure, abridged:
(§1)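 Compound treatment: 30 min, RT, 0.05 nM–50 μM final. Agonist: TLR7 gardiquimod 7.5 μM; TLR8 R848 15.9 μM; TLR9 ODN2006 5 nM. Incubation 22 h, 37 °C, 5% CO2. Readout SEAP, HEK-Blue Detection.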
(Reporter assays use an easily measured gene product as a stand-in for the process of interest.)

Test [2] has as its target T2, human TLR8 (Homo sapiens, UniProt Q9NR97).
T2 construct: host or cells: HEK-Blue cells
T2 sequence (Q9NR97 27-1041): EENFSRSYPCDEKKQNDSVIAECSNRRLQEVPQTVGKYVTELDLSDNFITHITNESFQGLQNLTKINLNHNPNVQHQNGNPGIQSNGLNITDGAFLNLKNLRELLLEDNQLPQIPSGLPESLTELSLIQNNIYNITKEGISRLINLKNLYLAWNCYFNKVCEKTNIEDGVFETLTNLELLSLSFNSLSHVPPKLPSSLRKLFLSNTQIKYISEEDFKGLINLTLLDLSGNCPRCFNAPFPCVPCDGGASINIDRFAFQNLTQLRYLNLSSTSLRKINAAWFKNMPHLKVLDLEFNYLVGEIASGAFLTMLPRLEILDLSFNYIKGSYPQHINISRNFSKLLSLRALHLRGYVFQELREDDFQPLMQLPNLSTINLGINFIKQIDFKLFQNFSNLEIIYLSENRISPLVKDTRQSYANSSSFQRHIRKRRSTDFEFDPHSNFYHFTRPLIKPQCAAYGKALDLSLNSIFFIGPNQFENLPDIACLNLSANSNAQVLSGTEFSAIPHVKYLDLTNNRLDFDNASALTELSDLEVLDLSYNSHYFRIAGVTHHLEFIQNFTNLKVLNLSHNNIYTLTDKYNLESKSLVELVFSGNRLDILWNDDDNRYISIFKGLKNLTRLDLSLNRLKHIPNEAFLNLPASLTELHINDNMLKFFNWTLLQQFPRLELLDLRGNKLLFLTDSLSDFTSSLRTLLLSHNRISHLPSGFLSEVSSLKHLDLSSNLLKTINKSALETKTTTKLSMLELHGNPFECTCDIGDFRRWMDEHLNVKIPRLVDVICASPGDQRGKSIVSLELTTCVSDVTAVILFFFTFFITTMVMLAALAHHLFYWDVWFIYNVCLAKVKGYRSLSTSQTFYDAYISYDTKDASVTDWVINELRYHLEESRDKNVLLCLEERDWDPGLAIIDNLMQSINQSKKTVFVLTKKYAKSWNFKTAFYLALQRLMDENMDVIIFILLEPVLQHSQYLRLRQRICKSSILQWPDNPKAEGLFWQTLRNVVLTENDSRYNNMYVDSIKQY
Put plainly: TLR8 inhibition reporter assay (HEK-Blue cells, SEAP reporter, R848 stimulation). Conditions: HEK-Blue cells overexpressing human TLR8, SEAP reporter, R848 15.9 μM; read-out: TLR8 IC50. An outline of the steps: as §1

The target of test [3] is T3, human TLR9 (Homo sapiens, UniProt Q9NR96).
T3 construct: host or cells: HEK-Blue cells
T3 sequence (Q9NR96 26-1032): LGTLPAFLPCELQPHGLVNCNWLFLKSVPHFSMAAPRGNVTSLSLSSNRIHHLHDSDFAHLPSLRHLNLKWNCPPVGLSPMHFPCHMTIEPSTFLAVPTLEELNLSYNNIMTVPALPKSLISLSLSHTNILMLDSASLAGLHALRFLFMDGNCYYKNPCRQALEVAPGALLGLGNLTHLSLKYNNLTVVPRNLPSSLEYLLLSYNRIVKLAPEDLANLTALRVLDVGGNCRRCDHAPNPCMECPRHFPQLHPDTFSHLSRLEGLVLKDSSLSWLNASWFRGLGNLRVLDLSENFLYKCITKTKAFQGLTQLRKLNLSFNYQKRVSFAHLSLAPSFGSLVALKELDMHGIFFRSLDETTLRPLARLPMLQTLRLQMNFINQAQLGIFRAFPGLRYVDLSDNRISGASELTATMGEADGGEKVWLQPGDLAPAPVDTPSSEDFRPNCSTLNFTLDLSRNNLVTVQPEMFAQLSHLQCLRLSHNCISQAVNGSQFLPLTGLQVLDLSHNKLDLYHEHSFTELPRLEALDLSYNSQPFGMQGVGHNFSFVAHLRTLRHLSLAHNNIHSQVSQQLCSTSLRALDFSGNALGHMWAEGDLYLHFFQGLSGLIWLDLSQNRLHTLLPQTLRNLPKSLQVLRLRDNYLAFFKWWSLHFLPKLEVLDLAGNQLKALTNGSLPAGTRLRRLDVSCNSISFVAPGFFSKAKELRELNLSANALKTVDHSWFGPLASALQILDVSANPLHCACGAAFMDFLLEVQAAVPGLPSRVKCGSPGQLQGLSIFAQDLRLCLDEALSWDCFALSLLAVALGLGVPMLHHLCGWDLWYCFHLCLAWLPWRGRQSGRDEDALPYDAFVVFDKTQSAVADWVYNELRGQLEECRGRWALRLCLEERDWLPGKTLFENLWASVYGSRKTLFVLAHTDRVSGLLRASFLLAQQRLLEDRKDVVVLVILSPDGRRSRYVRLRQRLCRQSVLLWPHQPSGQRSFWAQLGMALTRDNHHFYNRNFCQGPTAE
Put plainly: TLR9 inhibition reporter assay (HEK-Blue cells, SEAP reporter, ODN2006 stimulation). Conditions: HEK-Blue cells overexpressing human TLR9, SEAP reporter, ODN2006 5 nM. The procedure, abridged: as §1

Broadly, the IC50 is the concentration that inhibits the measured activity by half. Consider `CNC(=O)CNC1CCC(c2nc3c(C(C)C)c(-c4cn5ncnc5c(C)c4C)[nH]c3s2)CC1` (single isomer, unassigned) [Example 209, 2-((4-(5-(7,8-dimethyl-[1,2,4]triazolo[1,5-a]pyridin-6-yl)-6-isopropyl-4H-pyrrolo[3,2-d]thiazol-2-yl)cyclohexyl)amino)-N-methylacetamide], for which the IC50 in test [1] worked out at 0.32 nM; in test [2] it was 0.14 nM; in test [3] it was 4170 nM.
As for `Cc1c(-c2[nH]c3sc(C4CCC(N5CCOCC5)CC4)nc3c2C(C)C)cn2ncnc2c1C` (single isomer, unassigned) [Example 212, 4-(4-(5-(7,8-dimethyl-[1,2,4]triazolo[1,5-a]pyridin-6-yl)-6-isopropyl-4H-pyrrolo[3,2-d]thiazol-2-yl)cyclohexyl) morpholine], the IC50 in test [1] stood at 0.62 nM; in test [2], 0.63 nM; in test [3] it was 7390 nM.
Take `Cc1c(-c2[nH]c3sc(C4CCC(N5CCOCC5)CC4)nc3c2C(C)C)cn2ncnc2c1C` (single isomer, unassigned) [Example 213, 4-(4-(5-(7,8-dimethyl-[1,2,4]triazolo[1,5-a]pyridin-6-yl)-6-isopropyl-4H-pyrrolo[3,2-d]thiazol-2-yl)cyclohexyl) morpholine]: the IC50 stood at 4.64 nM in test [1], 3.41 nM in test [2] and 25500 nM in test [3].
For `Cc1c(-c2[nH]c3sc(C4CCC(NCC5(S(C)(=O)=O)CC5)CC4)nc3c2C(C)C)cn2ncnc2c1C` (single isomer, unassigned) [Example 214, 4-(5-(7,8-dimethyl-[1,2,4]triazolo[1,5-a]pyridin-6-yl)-6-isopropyl-4H-pyrrolo[3,2-d]thiazol-2-yl)-N-((1-(methylsulfonyl)cyclopropyl)methyl) cyclohexan-1-amine], in that order: 1.37 nM, 0.39 nM and 10300 nM.
As for `Cc1c(-c2[nH]c3sc(C4CCC(NCC5(S(C)(=O)=O)CC5)CC4)nc3c2C(C)C)cn2ncnc2c1C` (single isomer, unassigned) [Example 215, 4-(5-(7,8-dimethyl-[1,2,4]triazolo[1,5-a]pyridin-6-yl)-6-isopropyl-4H-pyrrolo[3,2-d]thiazol-2-yl)-N-((1-(methylsulfonyl)cyclopropyl)methyl) cyclohexan-1-amine], the IC50 was 2.3 nM in test [1], 6 nM in test [2] and 15000 nM in test [3].
With `Cc1c(-c2[nH]c3sc(C4CCC(N5CCC5)CC4)nc3c2C(C)C)cn2ncnc2c1C` (single isomer, unassigned) [Example 216, 2-(4-(azetidin-1-yl)cyclohexyl)-5-(7,8-dimethyl-[1,2,4]triazolo[1,5-a]pyridin-6-yl)-6-isopropyl-4H-pyrrolo[3,2-d]thiazole], the figures for the 50% inhibitory concentration (IC50) in test [1], in test [2] and in test [3] were 0.72 nM, 1.02 nM and 6520 nM, respectively.
On to `Cc1c(-c2[nH]c3sc(C4CCC(N5CCC5)CC4)nc3c2C(C)C)cn2ncnc2c1C` (single isomer, unassigned) [Example 217, 2-(4-(azetidin-1-yl)cyclohexyl)-5-(7,8-dimethyl-[1,2,4]triazolo[1,5-a]pyridin-6-yl)-6-isopropyl-4H-pyrrolo[3,2-d]thiazole], for which the IC50 in test [1] came out at 2.41 nM; in test [2], 5.3 nM; in test [3] it was 5870 nM.
As for `Cc1c(-c2[nH]c3sc(C4CCC(N5CC(F)(F)C5)CC4)nc3c2C(C)C)cn2ncnc2c1C` (single isomer, unassigned) [Example 218, 2-(4-(3,3-difluoroazetidin-1-yl)cyclohexyl)-5-(7,8-dimethyl-[1,2,4]triazolo[1,5-a]pyridin-6-yl)-6-isopropyl-4H-pyrrolo[3,2-d]thiazole], the IC50 in test [1] is 1.44 nM; in test [2], 18.6 nM; in test [3], 35900 nM.
In the case of `Cc1c(-c2[nH]c3sc(C4CCC(N5CC(F)(F)C5)CC4)nc3c2C(C)C)cn2ncnc2c1C` (single isomer, unassigned) [Example 219, 2-(4-(3,3-difluoroazetidin-1-yl)cyclohexyl)-5-(7,8-dimethyl-[1,2,4]triazolo[1,5-a]pyridin-6-yl)-6-isopropyl-4H-pyrrolo[3,2-d]thiazole], the figures for the IC50 in test [1], in test [2] and in test [3] were 637 nM, 713 nM and 46200 nM, respectively.
In the case of `Cc1c(-c2[nH]c3sc(C4CCC(N5CCNC(=O)C5)CC4)nc3c2C(C)C)cn2ncnc2c1C` (single isomer, unassigned) [Example 220, 4-(4-(5-(7,8-dimethyl-[1,2,4]triazolo[1,5-a]pyridin-6-yl)-6-isopropyl-4H-pyrrolo[3,2-d]thiazol-2-yl)cyclohexyl) piperazin-2-one], the IC50 in test [1] is 1.4 nM; in test [2], 4.38 nM; in test [3], over 50000 nM.
